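Grown in 96-well plates, cells were treated for 48 hours with each compound at five concentrations. Insufficient inhibition: endpoint recorded as highest concentration tested. TGI denotes the concentration required for complete inhibition of growth.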
Legend:
Assay in all cases: NCI-60 cell line screen, 48 h
A549 NSCLC = tested on: A549 NSCLC
CAKI-1 renal = tested on: CAKI-1 renal
HS 578T breast = tested on: HS 578T breast
NCI-H23 lung = tested on: NCI-H23 lung
NCI-H460 lung = tested on: NCI-H460 lung
SK-MEL-2 melanoma = tested on: SK-MEL-2 melanoma
SW-620 colon = tested on: SW-620 colon
BT-549 breast = tested on: BT-549 breast
COLO 205 colon = tested on: COLO 205 colon
SF-268 CNS = tested on: SF-268 CNS

| Structure (SMILES) | TGI (A549 NSCLC) | TGI (CAKI-1 renal) | TGI (HS 578T breast) | TGI (NCI-H23 lung) | TGI (NCI-H460 lung) | TGI (SK-MEL-2 melanoma) | TGI (SW-620 colon) | TGI (BT-549 breast) | TGI (COLO 205 colon) | TGI (SF-268 CNS) |
| --- | --- | --- | --- | --- | --- | --- | --- | --- | --- | --- |
| CCOC(=O)/C(=C/c1cn(C(C)=O)c2ccccc12)P(=O)(OC)OC | > 100 µM | > 100 µM | > 100 µM | > 100 µM | 79.7 µM | > 100 µM | > 100 µM |  |  |  |
| C[C@]12CC[C@H]3[C@@H](CCC4=C/C(=N/OCCN5CCCCC5)CC[C@@]43C)[C@@H]1CC[C@@H]2O | 34.5 µM | 55.3 µM |  | 30.4 µM |  | 29.8 µM | 32.7 µM | 36 µM | 47.3 µM |  |
| CN(CC(=O)O)c1ncc2c(n1)-c1ccccc1CC2 | > 100 µM | > 100 µM | > 100 µM | > 100 µM | > 100 µM | > 100 µM | > 100 µM |  | > 100 µM | > 100 µM |
| COC(=O)c1c2c(cc3c1CC1(Cc4cc5c(cc4C1)CCCC5)C3)CCCC2 | > 100 µM |  | > 100 µM | > 100 µM |  | > 100 µM |  |  | > 100 µM |  |
| Nc1ccc2c3c1cccc3c(=O)n1c3ccc(Cc4ccc5c(c4)nc4c6ccc(N)c7cccc(c(=O)n54)c76)cc3nc21 | > 100 µM | > 100 µM |  | > 100 µM | > 100 µM | > 100 µM | > 100 µM | > 100 µM | > 100 µM |  |
| CC(=O)N1CN2C(=O)CCC2c2cc(C)ccc21 (stereo not given) | > 100 µM | > 100 µM | > 100 µM | > 100 µM | > 100 µM | > 100 µM | > 100 µM |  | > 100 µM | > 100 µM |
| CN(C)CCCNC(=O)N/N=C/c1ccccn1 | > 10 µM |  | > 10 µM |  | > 10 µM |  | > 10 µM |  | > 10 µM | > 10 µM |
| COc1cc(CNc2nc3c(NC(C)=O)cc(C(F)(F)F)cc3nc2-c2ccccc2)cc(OC)c1OC | > 100 µM | > 100 µM |  |  |  | > 100 µM | > 100 µM |  | > 100 µM | > 100 µM |
| CCOC(=O)CCC(NC(=O)c1ccc(NCc2ccc3nc(OC)c(OC)nc3c2)c2ccccc12)C(=O)OCC (stereo not given) | > 100 µM | > 100 µM |  | > 100 µM | > 100 µM | > 100 µM | > 100 µM | > 100 µM | > 100 µM | > 100 µM |
| N#Cc1nc(-c2ccsc2)oc1N | > 100 µM | > 100 µM | > 100 µM |  |  | > 100 µM | > 100 µM |  |  | > 100 µM |
| Nc1ncnc2c1ncn2C1C(O)C=C(CO)C1O (stereo not given) | > 625 µM | > 625 µM |  |  | > 625 µM | > 625 µM | > 625 µM |  | > 625 µM | > 625 µM |
| O=C(CN1CCCC1)Nc1ccc2c(c1)C1Oc3ccccc3CC1CO2 (stereo not given) | > 100 µM | > 100 µM |  | > 100 µM |  | 50 µM | 35.6 µM | 75.4 µM | 27.8 µM | > 100 µM |
| C/C(=C\C(=O)O)C(=O)N(C)c1ccccc1I | > 100 µM | > 100 µM | > 100 µM | > 100 µM | > 100 µM | > 100 µM | > 100 µM |  | > 100 µM | > 100 µM |
| O=[N+]([O-])/C=C/c1cn(CCCCCCCCn2cc(/C=C/[N+](=O)[O-])c3ccccc32)c2ccccc12 | > 10 µM | > 10 µM | > 10 µM | > 10 µM | > 10 µM | > 10 µM | > 10 µM |  | > 10 µM | > 10 µM |
| O=c1ccc(=O)c2c1c1[nH]c3ccccc3c1c1c(=O)c3ccccc3c(=O)c21 | > 10 µM | > 10 µM | > 10 µM | > 10 µM | > 10 µM | > 10 µM | > 10 µM |  | > 10 µM | > 10 µM |
| COC(=O)[C@]1(c2cc3ccccc3[nH]2)CC2CNC1C1OC(C)(C)OC21 (stereo not given in full) | > 100 µM | > 100 µM |  | > 100 µM | > 100 µM | > 100 µM | > 100 µM | > 100 µM | > 100 µM | > 100 µM |
| N#CC(c1cc(Cl)ncn1)c1nc2cc(C(F)(F)F)ccc2s1 (stereo not given) | > 100 µM | > 100 µM |  | 6.97 µM | > 100 µM |  | 17.8 µM | 9.5 µM | 10.8 µM | 19.4 µM |
| Cc1cc(C)n(C(C)(C(=O)Cc2ccccc2)n2nc(C)cc2C)n1 | > 100 µM | > 100 µM | > 100 µM | > 100 µM | > 100 µM | > 100 µM | > 100 µM |  | > 100 µM | > 100 µM |
| CCN(CCCl)c1cc(CN(C)C)cc(NC(=O)c2ccc(C(=O)Nc3cccc(N(CCCl)NN)c3)cc2)c1 | 2.52 µM | 0.203 µM | 0.0711 µM | 0.626 µM |  | 0.181 µM |  |  | 0.199 µM | 20.5 µM |
| CC(C)(C)[C@H]1NC(=O)CN1C(=O)OCc1ccccc1 | > 100 µM |  |  | > 100 µM | > 100 µM | > 100 µM | > 100 µM | > 100 µM | > 100 µM | > 100 µM |

Reference: PubChem BioAssay (NCI)
